How the values were obtained:
Type in all cases: functional, cell-based
C-33-A = test: Antiproliferative activity against human C-33-A cells assessed as reduction in cell viability measured after 48 hrs by MTT assay
[1] = Antiproliferative activity against human CaLo cells assessed as reduction in cell viability
SiHa = test: Antiproliferative activity against human SiHa cells assessed as inhibition of cell growth by MTT assay
SGC-7901 [2] = test: Cytotoxicity against human SGC-7901 cells assessed as reduction in cell viability measured after 48 hrs by MTT colorimetric assay; conditions: SGC-7901, 48 h
RD = test: Antiproliferative activity against human RD cells assessed as cell growth inhibition measured after 72 hrs by MTT assay
Hep 3B2 = test: Cytotoxicity against human Hep3B cells assessed as inhibition of cell growth by MTT assay
MCF7 [3] = test: Antiproliferative activity against human MCF7 cells assessed as cell growth inhibition incubated for 6 days by SRB assay; conditions: MCF7, 144 h
SMMC-7721 = test: Antiproliferative activity against human SMMC-7721 cells assessed as reduction in cell growth by SRB assay
MDA-MB-453 = test: Antiproliferative activity against human MDA-MB-453 cells assessed as reduction in cell growth after 72 hrs by MTT assay; conditions: MDA-MB-453, 72 h
SK-BR-3 = test: Antiproliferative activity against human SK-BR-3 cells incubated for 72 hrs by MTT assay; conditions: SK-BR-3, 72 h
MDA-MB-231 = test: Antiproliferative activity against human MDA-MB-231 cells assessed as cell growth inhibition
CAMA-1 = test: Antiproliferative activity against human CAMA-1 cells assessed as cell growth inhibition
SGC-7901 [4] = test: Antiproliferative activity against human SGC-7901 cells assessed as cell growth inhibition
MCF7 [5] = test: Antiproliferative activity against human MCF7 cells assessed as inhibition of cell growth incubated for 24 hrs by MTT assay; conditions: MCF7, 24 h
HeLa [6] = test: Antiproliferative activity against human HeLa cells assessed as reduction in cell growth measured after 48 hrs by MTT assay
HepG2 = test: Antiproliferative activity against human HepG2 cells assessed as inhibition of cell proliferation after 72 hrs by MTT assay; conditions: HepG2, 72 h
MCF7 [7] = test: Antiproliferative activity against human MCF7 cells assessed as cell growth inhibition measured after 72 hrs by MTT assay; conditions: MCF7, 72 h
A2780 = test: Antiproliferative activity against human A2780 cells assessed as inhibition of cell growth
LoVo = test: Cytotoxicity against human LoVo cells incubated for 72 hrs by MTT assay
A549 = test: Antiproliferative activity against human A549 cells assessed as cell growth inhibition measured after 72 hrs by MTT assay; conditions: A549, 72 h
HeLa [8] = test: Cytotoxicity against human HeLa cells assessed as reduction in cell viability
Bel-7402 = test: Cytotoxicity against human Bel-7402 cells measured after 72 hrs by MTT assay; conditions: Bel-7402, 72 h
PC-3 = test: Cytotoxicity against human PC-3 cells assessed as reduction in cell viability

Molecule O=C1C(Cl)=C(NC(Cc2c[nH]c3ccccc23)C(=O)O)C(=O)c2ccccc21 (stereo not drawn) has an IC50 (C-33-A) of 3 nM, an IC50 [1] of 2690 nM and an IC50 (SiHa) of 3200 nM.
Work on CC(=O)O[C@H]1C(=O)[C@@]2(C)[C@H]([C@H](OC(=O)c3ccccc3)[C@]3(O)C[C@H](OC(=O)[C@H](O)[C@@H](NC(=O)c4ccccc4)c4ccccc4)C(C)=C1C3(C)C)[C@]1(OC(C)=O)CO[C@@H]1C[C@@H]2O [PACLITAXEL] yielded an IC50 (SGC-7901 [2]) of 14400 nM and an IC50 (RD) of over 10000 nM.
Work on O=C(/C=C(O)/C=C/c1c[nH]c2ccccc12)/C=C/c1c[nH]c2ccccc12 yielded an IC50 (Hep 3B2) of 14000 nM.
For CC[C@@]1(O)C(=O)OCc2c1cc1n(c2=O)Cc2cc3ccccc3nc2-1 [CAMPTOTHECIN], the IC50 (MCF7 [3]) was under 10 nM, the IC50 (SMMC-7721) was 3950 nM and the IC50 (MDA-MB-453) was under 10 nM. It also gave an IC50 (SK-BR-3) of under 10 nM, an IC50 (MDA-MB-231) of under 10 nM and an IC50 (CAMA-1) of 70 nM.
Work on O=C(c1cc2ccc(Cl)cc2n1Cc1cccc2ccccc12)N(CCO)[C@@H]1CC(=O)N2C[C@@H]3CCCN4CCC[C@@H]([C@H]34)[C@H]2C1 yielded an IC50 (SGC-7901 [4]) of 1100 nM, an IC50 (MCF7 [5]) of 1200 nM and an IC50 (HeLa [6]) of 900 nM.
Molecule COc1cc(/C=N/NC(=O)c2cn(Cc3ccccc3)c3ccccc23)cc(OC)c1OC has an IC50 (HepG2) of 0.63 nM.
Molecule COc1cc(C2CCCCc3c2ccc2c3ccn2C)cc(OC)c1OC (stereo not drawn) has an IC50 (MCF7 [7]) of 51 nM, an IC50 (A2780) of 37 nM and an IC50 (LoVo) of 49 nM. It also gave an IC50 (A549) of 22 nM, an IC50 (HeLa [8]) of 56 nM and an IC50 (Bel-7402) of 39 nM. It also gave an IC50 (PC-3) of 47 nM.
